From patent US20250099426A1, “Indolium Compounds for Treating Cancer” (Emory University, priority 2022, published 2025) come the findings set out here.

Entries after “also recorded” stand apart in the source; their conditions may differ.

Data set [1] has as its system Rb. As to the kind of experiment: Immunohistochemistry of in vivo LM36R tumor model, Rb. As to conditions: treated LM36R tumor tissue versus control tissue. Set-up: species or system mice. As for the experimental part:
(§1) Tumor samples were resected and embedded in formalin, processed, and stained. Formalin-fixed and paraffin-embedded tissue sections from each group were cut to a 5-μm thickness and air-dried. Processing was performed using Ventana DISCOVERY™ Ultra automated immunohistochemistry stainer. Slides were deparaffinized with EZ-Prep (#05279771001) and then were antigen retrieved for 64 minutes with CC1 reagent (#950-500). Rabbit anti-Eph receptor A3 (EphA3) antibody (ab126261) diluted at 1:50, Rabbit anti-Nkx3.2 (#PA5-21108 diluted at 1:500) and mouse anti-Rbl antibody (554136) diluted at 1:100 were applied and incubated for 40 minutes. For the first two stains, DISCOVERY™ OmniMap anti-Rb HRP was applied and incubated for 12 minutes, and the detection was completed in combination with DISCOVERY™ ChromoMap DAB kit for anti-EphA3 antibody and DISCOVERY™ Red kit for anti-Nkx3.2 anti-body, as per manufacturer recommendations. For the Rbl stain, DISCOVERY™ OmniMap anti-mouse HRP was applied and incubated for 12 minutes, and the detection was completed in combination with DISCOVERY™ ChromoMap DAB kit. Slides were counterstained with hematoxylin for 8 minutes. Slides were then dehydrated, cover-slipped, and evaluated by light microscopy. Whole imaging was performed.

Data set [2] has as its system EphA3. Put plainly: ATAC-seq of LM36R tumors, chromatin accessibility. The format is in vivo. As to conditions: treated versus vehicle LM36R tumors in mice. As to the method: To gain insights into the mechanisms by which Indolium 1 caused decrease in LM36R tumor volume, we analyzed possible changes in chromatin structure in the tumor cells using ATAC-seq. […] To further explore the effects that Indolium 1 has on cells which could have led to tumor size reduction, LM36R cells were treated with varying concentrations of Indolium 1. […] Beta-tubulin was used to confirm even protein concentrations in each sample.
Experiments reported herein indicate that small molecule, Indolium 1 has activity against vemurafenib resistant BRAF mutant melanoma. Vehicle versus Indolium treated tumors in mice were analyzed for potential biomarkers and for insight into the mechanism of Indolium 1 in vivo. […] EphA3 is a receptor tyrosine kinase which binds ligands ephrinA5 and […]. […] First, inactivating mutations in EphA3 are often found in high grade malignancies. Second, activation of wild type EphA3 causes downregulation of Akt, which has previously been implicated in melanoma progression. […] Finally, a novel antibody based therapeutic directed against EphA3, and therapies that induce EphA3 could sensitize melanoma to anit-EphA3 antibodies.

For the next data set, the system named is pMAPK. As to the kind of experiment: Western blotting of treated LM36R cells, pMAPK. Format: cell-based. The note with it: 0.1-5 μM Indolium 1, 24 hours. As for the experimental part: (§2) LM36R cells were grown in six T75 flasks. Upon reaching 70% confluence, cell media was replaced with media with concentrations of 0, 0.1, 0.5, 1, 2.5, and 5 μM Indolium 1. After 24 hours, cells were lysed in RIPA buffer (25 mM Tris-HCl, 150 mM NaCl, 1% NP-40, 1% sodium deoxycholate, 0.1% sodium dodecyl sulfate, pH 7.6) supplemented with HALT™ protease phosphatase inhibitor cocktails and 0.5 M EDTA solution. Cell lysates incubated on ice for 30 minutes, and then centrifuged at 16,000×g at 4° C. for 20 minutes. Protein concentration was determined using the Pierce BCA Protein Assay Kit™ and then normalized. NuPage™ LDS Sample Buffer (4×) and beta-mercaptoethanol were added to the samples, which were subsequently boiled. Sample protein (40 μg) of were loaded into each well of NuPAGE™ 4-12% Bis-Tris precast gels in MOPS buffer against Precision Plus™ Protein Dual Color Standards. Proteins were transferred onto polyvinylidene difluoride membrane using Transblot Turbo™ system. Membrane was blocked for 1 hour at room temperature in 5% non-fat dry milk in 0.1% Tween-Tris-Buffered Saline and probed with Rb (#PA5-27215) pMAPK (9101S), pAkt (#4060S), and beta-tubulin (#2146S) antibodies at 1:1000 dilutions in 5% bovine serum albumin at 4° C. overnight. […] Antibody signal was detected using SuperSignal™ West Pico chemiluminescence substrate with Medical X-Ray Film and digitally scanned.
(In general: Immunoblotting shows a protein as a band on a membrane.)

A further data set has as its system LM36R cells. Put plainly: Proliferation assay / cell viability (AlamarBlue). The format is cell-based. The note with it: Indolium 1 1 μM, 24 hours. As to the method: Lanes: 1) Control 2) Indolium 1 (1 μM) 3) MEK Inhibitor U0126 (10 μM) 4) Akt Inhibitor II (10 μM) 5) Indolium 1 (1 μM)+MEK Inhibitor U0126 (10 μM) 6) Indolium 1+Akt Inhibitor II (10 μM). *=Statistically lower cell viability compared to control (p<0.05). **=Statistically lower cell viability compared to control and statistically higher cell viability than Indolium 1 treatment (lane 2) alone. Inhibition of MAPK and Akt reverses cell death caused by Indolium 1.
The induction of MAPK and Akt seem to contribute to reduction in tumor size observed in mice treated with Indolium 1. In a cell viability assay, cells were treated with Indolium 1, MEK inhibitor (inhibiting the MAPK signaling pathway directly upstream of MAPK), and Akt inhibitor. Cells were also treated with a combination of Indolium 1 and each inhibitor. […]
A cell proliferation assay was used to study the effect of Indolium 1 in vitro. […] After 4 hours, the plate was read following manufacturer's instructions and the data was processed using Softmax™ Pro software (Molecular Devices). An unpaired two-tailed Student's t-test was performed to determine the significant difference between the control and each treatment group, along with between the Indolium 1 only versus Indolium 1 plus MEK/Akt inhibitor, with significance determined at p<0.05.

Data set [3] relates to EphA3. Put plainly: Immunohistochemistry of in vivo LM36R tumor model, EphA3. Set-up: species or system mice. As to conditions: treated LM36R tumor tissue versus controls. As to the method: as §1
Data set [4] has as its system LM36R, a vemurafenib-resistant melanoma cell line. Put plainly: In vivo LM36R xenograft model, tumor volume. Set-up: species or system athymic Nu/Nu nude male mice. The note with it: LM36R 1×10^6 cells/mouse, IP three times a week, 3 mg/kg/week, 4 weeks, N=5/group, p-value=0.03 at week 4. As for the experimental part:
Mice were inoculated with LM36R, a vemurafenib-resistant melanoma cell line, at 1×10^6 cells/mouse. Mice were then treated with Indolium via IP administration three times a week at a concentration of 3 mg/kg/week. Tumor growth was compared to control vehicle (sterile water). […] (N=5/group, p-value=0.03) at week 4.
In order to investigate Indolium 1 activity against LM36R, vemurafenib-resistant melanoma cell line, in vivo, 10 mice were inoculated at 1×10^6 cells/mouse. Mice were then treated with indolium 1 via IP administration three times a week at a concentration of 3 mg/kg/week. […] (FIG. 2).
The xenograft model was developed. A LM36R cell suspension in growth medium was inoculated at 1×10^6 cells/mouse in the right flank of athymic Nu/Nu nude male mice (n=5 per group). MPIB was prepared by dissolving 3.75 mg into 1 mL of ethanol 7. This solution (100 μL) was then diluted to the final concentration in 1 mL of 20% soy-fat Intralipid™ prior to each injection and vortexed vigorously. […] MPIB treatment was initiated on the second day after the tumor cell injection, and the tumor volume as well as the weight of the animals were recorded weekly thereafter. Animals were sacrificed and tumors were harvested after tumor volumes reached experimental endpoint as determined by IACUC protocol.

For a further data set, the system named is Nkx3.2. As to the kind of experiment: Immunohistochemistry of in vivo LM36R tumor model, Nkx3.2. The note with it: treated LM36R tumor versus control. Set-up: species or system mice. As for the experimental part:
as §1

Another data set relates to pAkt. As to the kind of experiment: Western blotting of treated LM36R cells, pAkt. Format: cell-based. The note with it: 0.1-5 μM Indolium 1, 24 hours. As for the experimental part: as §2
On the set-up of data set [5]: species or system mice. As to conditions: mouse, in vivo. As for the experimental part:
The ability to inhibit the growth of vemurafenib resistant melanoma in vivo is unique.
The xenograft model was developed. A LM36R cell suspension in growth medium was inoculated at 1×10^6 cells/mouse in the right flank of athymic Nu/Nu nude male mice (n=5 per group). MPIB was prepared by dissolving 3.75 mg into 1 mL of ethanol 7. This solution (100 μL) was then diluted to the final concentration in 1 mL of 20% soy-fat Intralipid™ prior to each injection and vortexed vigorously. Vehicle control (ethanol in Intralipid) or MPIB was administered intraperitoneally three times a week at 3 mg/kg/week. MPIB treatment was initiated on the second day after the tumor cell injection, and the tumor volume as well as the weight of the animals were recorded weekly thereafter. Animals were sacrificed and tumors were harvested after tumor volumes reached experimental endpoint as determined by IACUC protocol.

The subject of data set [6] is Rb. As to the kind of experiment: Western blotting of treated LM36R cells, Rb. Format: cell-based. As to conditions: 0.1-5 μM Indolium 1, 24 hours. As to the method:
as §2

On to “3-(bis(4-(diethylamino)phenyl) methylene)-1-methyl-2-phenyl-3H-indol-1-ium [Indolium 1]”, for which the Rb immunohistochemical staining entry with Rb [1] was “less Rb compared with control tissue”. In addition, the “EphA3 chromatin accessibility (ATAC-seq)” value in the data set on EphA3 [2] is given as “one of the most upregulated genes in terms of chromatin accessibility”. The “pMAPK levels (Western blot)” value with pMAPK is recorded as “induction of phosphorylated MAP kinase”. Further, the relative cell viability result with LM36R cells is recorded as “cell death”. Further, the EphA3 immunohistochemical staining entry in the data set on EphA3 [3] is given as “more positivity for EPHA3 compared to controls”. Besides, the “tumor volume versus control” value in data set [4] was “potent in vivo activity against LM36R; also recorded: significant reduction of tumor volume; also recorded: reduced tumor volume over 4 weeks”. Besides, in the data set on Nkx3.2, the Nkx3.2 immunohistochemical staining entry is recorded as “upregulated Nkx3.2 expression”. Also, the “pAkt levels (Western blot)” value with pAkt is given as “induction”. Further, in data set [5], the tolerability entry was “well tolerated”. In the data set with Rb [6], the “levels of Rb (Western blot)” value was “decreased with increasing concentrations”.
